Results from US20260256728A1, “TREATMENT FOR ASYMPTOMATIC STARGARDT DISEASE PATIENTS” (priority 2024, published 2026).
Entries after “also recorded” stand apart in the source; their conditions may differ.

What was measured:
[1] = system: atrophic retinal lesions in Stargardt disease patients; assay: TEASE-1 growth rate of atrophic retinal lesions by fundus autofluorescence imaging; assay type: in vivo, human; parameters: relative slower growth rate of atrophic retinal lesions versus control / Percentage Slowing of Atrophic Retinal Lesion Growth Rate: concentration or dose not given beside the values
Procedure: The Tolerability and Effects of gildeuretinol acetate in Stargardt Disease (Clinical trial group 1, also known as TEASE-1) was a 24-month, multicenter, double-masked, placebo-controlled trial designed to evaluate the efficacy and safety of daily oral gildeuretinol acetate in slowing the growth of atrophic retinal lesions in Stargardt disease patients. The trial was conducted at multiple sites in the United States (NCT02402660).
Patients 12 years or older, clinically diagnosed with Stargardt disease, with at least one ABCA4 mutation, at least one eye presenting with well-demarcated areas of reduced fundus autofluorescence including retinal atrophic lesions, and with any visual acuity, were enrolled.
Patients were randomized to gildeuretinol acetate 14 mg capsules, gildeuretinol acetate 24 mg capsules, or placebo capsules, to be taken once daily for one year. After one year, 50% of randomly selected patients receiving placebo were crossed over in a 1:1 ratio to gildeuretinol acetate 14 mg capsules or gildeuretinol acetate 24 mg capsules for a second year.
Deidentified retinal images of patients not enrolled in the trial were included as a natural history cohort. This natural history cohort comprised patients diagnosed with Stargardt disease of any age, with two or more longitudinal fundus autofluorescence images taken at least four months apart over a maximum period of 2.5 years.
[…] retinal imaging comparing gildeuretinol acetate versus the untreated arm ([…]). Only well-delineated and homogeneous retinal atrophic lesions ≥0.2 mm^2 with a summed area ≥0.5 mm^2 were included in the primary analysis.
The primary endpoint analysis used a linear mixed-effect model (LMEM) with repeated measures, conferring a higher power to detect smaller effects. All observed data, including both eyes, were utilized. Treatment duration was computed as a continuous measure for each visit based on years since randomization. Adjustments for baseline retinal atrophy used the baseline atrophic retinal lesion size as a fixed effect in the LMEM. Additional fixed effects included treatment arm, treatment duration, and interaction between the treatment arm and treatment duration. Random effects included patient, eye, grader to adjust for correlation between eyes within a patient, graders' assessment of an eye, and observations of the same eye over time. A random effect slope term was added to the effect of treatment duration. Patients who crossed over to gildeuretinol acetate after year one were included in the untreated arm from baseline to year one, then in the gildeuretinol acetate arm from […] upon crossing over to gildeuretinol acetate. The full analysis set (FAS) comprised all randomized patients who received at least one dose of the study drug.
[…] All available data between 0 and 24 months was used to compute the slope of each segment. The primary efficacy endpoint was the slope of the second segment. No constraints were imposed on the Y-intercept. All growth rates were calculated on a per-year basis.
No imputations were made for missing data because the LMEM yields valid inferences under the assumption of a missing-at-random mechanism. The two-sided P-value of the primary efficacy endpoint was calculated using Kenward-Roger's method for handling denominator degrees of freedom and small samples. The goodness of fit of the linear mixed-effect model was provided as R-squared (R^2). Analyses were conducted in R (R Core Team, 2020). Prespecified, unadjusted sensitivity analyses of the primary efficacy endpoint included growth rates of untransformed areas of retinal atrophy and growth rates using a single-slope from baseline until the last available visit. Post-hoc unadjusted analyses were performed to evaluate the potential contribution of patient characteristics.

[2] = system: asymptomatic Stargardt disease patients; assay: TEASE-3 photoreceptor loss (ellipsoid zone band loss) by optical coherence tomography; assay type: in vivo, human
Procedure: FIG. 5 is a graph showing retinal photoreceptor loss over time in three asymptomatic Stargardt disease patients taking gildeuretinol acetate 14 mg daily. Lines are piecewise linear regressions with a knot time of 6 months and show the mean area of retinal photoreceptor loss of both eyes. Each symbol represents the area of photoreceptor loss for one eye. To measure photoreceptor loss, the ellipsoid zone layer was evaluated on b-scans acquired on Heidelberg engineering optical coherence tomography (Heidelberg, Germany).
The tolerability and effects of ALK-001 (gildeuretinol acetate) in Stargardt Disease (Clinical trial group 3, also known as TEASE-3) study was an open-label, multicenter, case control study designed to evaluate the efficacy and safety of gildeuretinol acetate on the progression of Stargardt disease in asymptomatic individuals. The trial was conducted at multiple sites in the United States.
Patients received gildeuretinol acetate 14 mg capsules, to be taken orally once daily. Trial visits occurred every 6 months approximately following screening and treatment start visits.
Disease progression was monitored by best-corrected visual acuity (BCVA) reported in number of Early Treatment Diabetic Retinopathy Study (ETDRS) letters, fundus autofluorescence (FAF) imaging, loss of photoreceptors (as measured by the ellipsoid zone band loss) by optical coherence tomography (OCT) and retinal sensitivity by microperimetry.
Measurements from the left and right eye for each patient were averaged for each visit to produce a single statistical unit for both eyes. For segmented linear regressions, knot times were selected so that three visits were included in the first segment.

[3] = TEASE-3 safety; assay type: in vivo, human; conditions: three patients, 14 mg daily
Procedure: The tolerability and effects of ALK-001 (gildeuretinol acetate) in Stargardt Disease (Clinical trial group 3, also known as TEASE-3) study was an open-label, multicenter, case control study designed to evaluate the efficacy and safety of gildeuretinol acetate on the progression of Stargardt disease in asymptomatic individuals. The trial was conducted at multiple sites in the United States. Patients received gildeuretinol acetate 14 mg capsules, to be taken orally once daily. Trial visits occurred every 6 months approximately following screening and treatment start visits. Ocular safety was assessed by retinal imaging and ocular exam, which included evaluation of the anterior and posterior segments and the lens. Systemic safety was assessed by physical exam, comprehensive clinical labs (biochemistry, hematology, lipids), and 12-lead ECG.

[4] = in vivo

With `[2H]C([2H])([2H])C(/C=C/C=C(C)/C=C/C1=C(C)CCCC1(C)C)=C\COC(C)=O` [gildeuretinol acetate] the “growth rate of atrophic retinal lesions (square root area)” value ([1]; 14 to 24 mg daily, slope 6 to 24 months, 34 patients) was 0.19 mm/year, the “relative slower growth rate of atrophic retinal lesions versus control” value ([1]; P<0.001, R^2=0.9996) was 21% and the “difference in growth rate of atrophic retinal lesions versus control” value ([1]; control 0.24 mm/year (placebo + natural history), 95% CI 0.03 to 0.07) was 0.05 mm/year. For the same compound, the “prespecified primary efficacy endpoint (mean growth rate of atrophic retinal lesions vs placebo and natural history)” value ([1]; in vivo) was “met its prespecified primary efficacy endpoint”, the “effect on expansion of retinal atrophic lesions / retinal degeneration” value ([1]; symptomatic Stargardt disease patients, once daily up to 24 months) was “slowed the expansion of retinal atrophic lesions; also recorded: slows retinal degeneration” and the “progression of photoreceptor loss” value ([2]; first six months of treatment, average of two treated patients) was “approximately 0.18 mm^2/year”. The photoreceptor loss trend ([2]; following years of treatment) was “trended toward an improvement”, the “photoreceptor loss, third patient” value ([2]; full treatment period) was “no photoreceptors were lost” and the “average area of photoreceptor loss” value ([2]; in vivo) was 0.36±0.32 mm^2. For the same compound, the “average area of photoreceptor loss as share of the foveal area” value ([2]; in vivo) was 20%, the “adverse reactions linked to excessive or insufficient vitamin A (delays in dark adaptation, night blindness)” value [3] was “None of the three Stargardt disease asymptomatic patients exhibited adverse reactions” and the “Patients experiencing event (%): Ear infection” value [4] was 1 (10.0). For the same compound, the “Patients experiencing event (%): Gastroenteritis viral” value [4] was 0, the “Patients experiencing event (%): Herpes zoster” value [4] was 0 and the “Patients experiencing event (%): Skin infection” value [4] was 0. The “Patients experiencing event (%): Upper respiratory tract infection” value [4] was 2 (20.0), the “changes in visual acuity” value [4] was “No changes in visual acuity were observed” and the “discontinuation of treatment due to side effects” value [4] was “no patient discontinued treatment due to side effects”. The “serious adverse events associated with treatment” value [4] was “No serious adverse events” and the “severity of adverse events” value [4] was “mild or moderate”.
